Assay results published in patent publication US11878965B2, “Inhibitors of peptidylarginine deiminases” (Gilead Sciences, Inc., priority 2020, dated 2024).

The compounds below were run against human PAD4 (Homo sapiens (Human), UniProt Q9UM07) (assay: In Vitro PAD4 BAEE Biochemical Assay). Settings: human PAD4, BAEE substrate; 5 nM PAD4, 2 mM calcium chloride, 3 mM BAEE; geometric mean of multiple experiments.
Procedure: The PCR product was ligated into linearized pET-SUMO vector (Invitrogen, Carlsbad, CA), which is part of the Champion™ pET SUMO Protein Expression System. After sequence verification for the correct orientation, the pET-SUMO-hPAD4 expression plasmid was transformed into BL21(DE3) cells.
E. Coli BL21(DE3) cells were inoculated in LB medium with kanamycin at 37° C. until A600 nm reached about 0.5. Protein expression was induced by addition of 0.5 mM IPTG (final) and continued overnight at 16° C. at 220 rpm.
Cells were harvested by centrifugation at 5000 rpm for 10 minutes at 4° C. The pellet was resuspended in 300 ml lysis buffer (20 mM Tris-HCl, pH 8.0, 1 mM EDTA, 500 mM NaCl, 1 mM (tris(2-carboxyethyl)phosphine) (TCEP), 10% glycerol, and 1% Triton X100 and EDTA free protease inhibitor) and lysed by 3× passage through a microfluidizer (Microfluidics, Newton, MA) at 18,000 psi. The cell lysate was clarified by centrifugation at 30,000 rpm for 60 minutes at 4° C. The supernatant was applied to a 5 ml Ni-HP (GE HealthCare Cat #17524701) column preequilibrated in Ni-A buffer (20 mM Tris-HCl, pH 8.0, 20 mM Imidazole, 1 mM TCEP, 10% glycerol, and 400 mM NaCl). Bound protein was eluted with a 0-100% linear gradient of 100 mL Ni-B buffer (Ni A buffer+0.5 M Imidazole).
The His-Sumo tag was cleaved using sumo protease (Thermo Fisher Cat #: 12588018) while dialyzing in buffer (20 mM Tris-HCl, pH 8.0, 1 mM EDTA, 500 mM NaCl, 1 mM TCEP, 10% glycerol). The protein was then reloaded onto a Ni-HP column for a reverse purification step and recovered in flow through fraction. The protein with His-Sumo tag removed was then polished using a 16/60 Superdex-200 gel filtration column with gel filtration buffer (20 mM Tris pH 8.0, NaCl 400 mM and 1 mM TCEP). The fractions containing the protein were pulled and frozen at −80° C.
In Vitro PAD4 BAEE Biochemical Assay
The enzymatic activity of human PAD4 was monitored in a biochemical assay in the presence or absence of compounds using the small peptidyl arginine mimic BAEE (Nα-Benzoyl-L-arginine ethyl ester hydrochloride) as substrate. PAD4 activity led to deimination of BAEE and release of ammonia. Levels of ammonia were monitored by using an amine coupling reaction and were indicative of PAD4 enzymatic activity.
One hundred nanoliters of test compounds dissolved in DMSO at various concentrations were dispensed into a 384-well black OptiPlate using a Labcyte Echo instrument. Ten microliters of a solution of recombinant PAD4 and calcium chloride diluted in PAD4 assay buffer (50 mM MOPS [3-(N-morpholino) propanesulfonic acid], pH 7.6; 50 mM sodium chloride; 0.05% Tween-20; 2 mM dithiothreitol) was added to the compound-containing plate and was incubated for 30 minutes at 25° C. Ten microliters of a solution of BAEE (Sigma-Aldrich #B4500) diluted in PAD4 assay buffer was then added to start the reaction. Final concentrations were 5 nM PAD4, 2 mM calcium chloride, and 3 mM BAEE. The reaction mixture was incubated at 25° C. for 2 hours and was stopped with the addition of 10 microliters of a solution of 75 mM EDTA (Ethylenediaminetetraacetic acid) in PAD4 assay buffer. Thirty microliters of detection solution (5 mM o-phthalaldehyde, 50 mM MOPS [3-(N-morpholino) propanesulfonic acid], pH 7.6; 50 mM sodium chloride; 0.05% Tween-20; 5 mM dithiothreitol) was then added and the reaction was incubated for 1 hour at 25° C. The level of fluorescent thiol-substituted isoindole resulting from the reaction of ammonia, o-phthalaldehyde, and dithiothreitol was measured on an Envision plate reader (PerkinElmer) with 405 nm excitation and 535 nm emission.

Sequence of human PAD4 (Q9UM07 2-663): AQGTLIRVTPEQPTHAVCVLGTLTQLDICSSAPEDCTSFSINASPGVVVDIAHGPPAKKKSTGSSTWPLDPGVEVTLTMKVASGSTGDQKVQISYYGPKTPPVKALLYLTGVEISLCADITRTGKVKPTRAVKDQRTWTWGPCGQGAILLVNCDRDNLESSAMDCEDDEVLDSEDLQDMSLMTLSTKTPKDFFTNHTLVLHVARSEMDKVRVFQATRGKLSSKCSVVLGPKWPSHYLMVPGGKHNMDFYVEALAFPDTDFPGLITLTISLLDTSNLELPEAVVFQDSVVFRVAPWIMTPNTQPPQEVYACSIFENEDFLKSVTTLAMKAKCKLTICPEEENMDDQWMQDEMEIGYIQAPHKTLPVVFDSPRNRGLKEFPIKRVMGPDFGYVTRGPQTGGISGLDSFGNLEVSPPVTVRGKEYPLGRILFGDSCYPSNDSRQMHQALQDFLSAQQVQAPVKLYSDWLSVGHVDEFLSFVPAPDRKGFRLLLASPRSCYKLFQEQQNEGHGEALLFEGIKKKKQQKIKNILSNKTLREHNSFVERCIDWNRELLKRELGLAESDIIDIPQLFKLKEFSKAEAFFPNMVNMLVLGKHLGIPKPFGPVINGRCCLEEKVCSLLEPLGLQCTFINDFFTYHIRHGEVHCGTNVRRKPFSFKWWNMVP

| Compound | IC50 [nM] |
| --- | --- |
| 2-(1-(cyclopropylmethyl)- 6-((N-(difluoromethyl) methyl)sulfonamido)- 1H-pyrrolo[2,3-b]pyridin-2- yl)-6-fluoro-N-((3S,4S)- 4-fluoropiperidin- 3-yl)-1-methyl-1H- benzo[d]imidazole-5- carboxamide [Example 93] | 146 |
| COc1cc(C(=O)N[C@@H]2CNC[C@H]2NC(=O)/C=C/CN(C)C)cc2nc(-c3cc4ccc(N(C(F)F)S(C)(=O)=O)nc4n3CC3CC3)n(C)c12 (stereo in doubt) [Example 71, 2-[1-(cyclopropylmethyl)-6-[difluoromethyl(methylsulfonyl)amino]pyrrolo[2,3-b]pyridin-2-yl]-N-[(3R,4R)-4-[[(E)-4-(dimethylamino)but-2-enoyl]amino]pyrrolidin-3-yl]-7-methoxy-1-methyl-benzimidazole-5-carboxamide] | 490 |
| COc1cc(C(=O)N2CCC[C@@H](N)C2)cc2nc(-c3cc4ccc(NS(C)(=O)=O)cc4n3CC3CC3)n(C)c12 [Example 1, (R)-N-(2-(5-(3-aminopiperidine-1-carbonyl)-7-methoxy-1-methyl-1H-benzo[d]imidazol-2-yl)-1-(cyclopropylmethyl)-1H-indol-6-yl)methanesulfonamide] | 1580 |
| COc1cc(C(=O)N2CCC[C@@H](N)C2)cc2nc(-c3cc4ccc(N(C)S(C)(=O)=O)cc4n3CC3CC3)n(C)c12 [Example 2, (R)-N-(2-(5-(3-aminopiperidine-1-carbonyl)-7-methoxy-1-methyl-1H-benzo[d]imidazol-2-yl)-1-(cyclopropylmethyl)-1H-indol-6-yl)-N-methylmethanesulfonamide] | 210 |
| COc1cc(C(=O)N2CCC[C@@H](N)C2)cc2nc(-c3cc4ccc(N(C)S(C)(=O)=O)nc4n3CC3CC3)n(C)c12 [Example 3, (R)-N-(2-(5-(3-aminopiperidine-1-carbonyl)-7-methoxy-1-methyl-1H-benzo[d]imidazol-2-yl)-1-(cyclopropylmethyl)-1H-pyrrolo [2,3-b]pyridin-6-yl)-N-methylmethanesulfonamide] | 122 |
| COc1cc(C(=O)N2CCC[C@@H](N)[C@H]2C)cc2nc(-c3cc4ccc(N(C)S(C)(=O)=O)nc4n3CC3CC3)n(C)c12 [Example 4, N-(2-(5-((2R,3R)-3-amino-2-methylpiperidine-1-carbonyl)-7-methoxy-1-methyl-1H-benzo[d]imimidazol-2-yl)-1-(cyclopropylmethyl)-1H-pyrrolo [2,3-b]pyridin-6-yl)-N-methylmethanesulfonamide] | 149 |
| CCN(c1ccc2cc(-c3nc4cc(C(=O)N5CCC[C@@H](N)C5)cc(OC)c4n3C)n(CC3CC3)c2n1)S(C)(=O)=O [Example 5, (R)-N-(2-(5-(3-aminopiperidine-1-carbonyl)-7-methoxy-1-methyl-1H-benzo[d]imidazol-2-yl)-1-(cyclopropylmethyl)-1H-pyrrolo [2,3-b]pyridin-6-yl)-N-ethylmethanesulfonamide] | 78.6 |
| COc1cc(C(=O)N2CCC[C@@H](N)C2)cc2nc(-c3cc4ccc(N(C(C)C)S(C)(=O)=O)nc4n3CC3CC3)n(C)c12 [Example 6, (R)-N-(2-(5-(3-aminopiperidine-1-carbonyl)-7-methoxy-1-methyl-1H-benzo[d]imidazol-2-yl)-1-(cyclopropylmethyl)-1H-pyrrolo [2,3-b]pyridin-6-yl)-N-isopropylmethanesulfonamide] | 59.5 |
| CCS(=O)(=O)N(C)c1ccc2cc(-c3nc4cc(C(=O)N5CCC[C@@H](N)C5)cc(OC)c4n3C)n(CC3CC3)c2n1 [Example 7, (R)-N-(2-(5-(3-aminopiperidine-1-carbonyl)-7-methoxy-1-methyl-1H-benzo[d]imidazol-2-yl)-1-(cyclopropylmethyl)-1H-pyrrolo [2,3-b]pyridin-6-yl)-N-methylethanesulfonamide] | 164 |
| COc1cc(C(=O)N2CCC[C@@H](N)C2)cc2nc(-c3cc4ccc(N(C)S(=O)(=O)C5CC5)nc4n3CC3CC3)n(C)c12 [Example 8, (R)-N-(2-(5-(3-aminopiperidine-1-carbonyl)-7-methoxy-1-methyl-1H-benzo[d]imidazol-2-yl)-1-(cyclopropylmethyl)-1H-pyrrolo [2,3-b]pyridin-6-yl)-N-methylcyclopropanesulfonamide] | 190 |
| COc1cc(C(=O)N2CCC[C@@H](N)C2)cc2nc(-c3cc4ccc(N(C)S(=O)(=O)C(C)C)nc4n3CC3CC3)n(C)c12 [Example 9, (R)-N-(2-(5-(3-aminopiperidine-1-carbonyl)-7-methoxy-1-methyl-1H-benzo[d]imidazol-2-yl)-1-(cyclopropylmethyl)-1H-pyrrolo [2,3-b]pyridin-6-yl)-N-methylpropane-2-sulfonamide] | 238 |
| CCCN(c1ccc2cc(-c3nc4cc(C(=O)N5CCC[C@@H](N)C5)cc(OC)c4n3C)n(CC3CC3)c2n1)S(C)(=O)=O [Example 10, (R)-N-(2-(5-(3-aminopiperidine-1-carbonyl)-7-methoxy-1-methyl-1H-benzo[d]imidazol-2-yl)-1-(cyclopropylmethyl)-1H-pyrrolo [2,3-b]pyridin-6-yl)-N-propylmethanesulfonamide] | 330 |
| COc1cc(C(=O)N2CCC[C@@H](N)C2)cc2nc(-c3cc4ccc(N(Cc5ccccc5)S(C)(=O)=O)nc4n3CC3CC3)n(C)c12 [Example 11, (R)-N-(2-(5-(3-aminopiperidine-1-carbonyl)-7-methoxy-1-methyl-1H-benzo[d]imidazol-2-yl)-1-(cyclopropylmethyl)-1H-pyrrolo [2,3-b]pyridin-6-yl)-N-benzylmethanesulfonamide] | 192 |
| COc1cc(C(=O)N2CCC[C@@H](N)C2)cc2nc(-c3cc4ccc(N(C)S(=O)(=O)c5ccccc5)nc4n3CC3CC3)n(C)c12 [Example 12, (R)-N-(2-(5-(3-aminopiperidine-1-carbonyl)-7-methoxy-1-methyl-1H-benzo[d]imidazol-2-yl)-1-(cyclopropylmethyl)-1H-pyrrolo [2,3-b]pyridin-6-yl)-N-methylbenzenesulfonamide] | 225 |
| COc1cc(C(=O)N2CCC[C@@H](N)C2)cc2nc(-c3cc4ccc(N(c5ccccc5)S(C)(=O)=O)nc4n3CC3CC3)n(C)c12 [Example 13, (R)-N-(2-(5-(3-aminopiperidine-1-carbonyl)-7-methoxy-1-methyl-1H-benzo[d]imidazol-2-yl)-1-(cyclopropylmethyl)-1H-pyrrolo [2,3-b]pyridin-6-yl)-N-phenylmethanesulfonamide] | 3570 |
| CCCCS(=O)(=O)N(C)c1ccc2cc(-c3nc4cc(C(=O)N5CCC[C@@H](N)C5)cc(OC)c4n3C)n(CC3CC3)c2n1 [Example 14, (R)-N-(2-(5-(3-aminopiperidine-1-carbonyl)-7-methoxy-1-methyl-1H-benzo[d]imidazol-2-yl)-1-(cyclopropylmethyl)-1H-pyrrolo [2,3-b]pyridin-6-yl)-N-methylbutane-1-sulfonamide] | 249 |
| COc1cc(C(=O)N2CCC[C@@H](N)C2)cc2nc(-c3cc4ccc(N(C5CCC5)S(C)(=O)=O)nc4n3CC3CC3)n(C)c12 [Example 15, (R)-N-(2-(5-(3-aminopiperidine-1-carbonyl)-7-methoxy-1-methyl-1H-benzo[d]imidazol-2-yl)-1-(cyclopropylmethyl)-1H-pyrrolo [2,3-b]pyridin-6-yl)-N-cyclobutylmethanesulfonamide] | 136 |
